How the values were obtained:
[1] = tested on: ragweed (common ragweed, Ambrosia elatior); experiment: Test A preemergence, visual injury rating 0-100; type: in vivo; settings: for Ragweed plant response rating: 31 g ai/ha, 0 to 100 scale (0 no effect, 100 complete control), approx. 10 days
[2] = tested on: foxtail, giant (giant foxtail, Setaria faberii); experiment: Test A preemergence, visual injury rating 0-100; type: in vivo; settings: for Foxtail, Giant plant response rating: 31 g ai/ha, 0 to 100 scale (0 no effect, 100 complete control), approx. 10 days
[3] = tested on: ryegrass, Italian (Italian ryegrass, Lolium multiflorum); experiment: Test A preemergence, visual injury rating 0-100; type: in vivo; settings: for Ryegrass, Italian plant response rating: 31 g ai/ha, 0 to 100 scale (0 no effect, 100 complete control), approx. 10 days
[4] = tested on: pigweed (Amaranthus retroflexus); experiment: Test A preemergence, visual injury rating 0-100; type: in vivo; settings: for Pigweed plant response rating: 31 g ai/ha, 0 to 100 scale (0 no effect, 100 complete control), approx. 10 days
kochia (Kochia scoparia) [5] = experiment: Test A preemergence, visual injury rating 0-100; type: in vivo; settings: for Kochia plant response rating: 31 g ai/ha, 0 to 100 scale (0 no effect, 100 complete control), approx. 10 days
[6] = tested on: blackgrass (Alopecurus myosuroides); experiment: Test A postemergence, visual injury rating 0-100; type: in vivo; settings: 0 to 100 scale
[7] = tested on: ragweed (common ragweed, Ambrosia elatior); experiment: Test A postemergence, visual injury rating 0-100; type: in vivo; settings: 0 to 100 scale
[8] = tested on: foxtail, giant (giant foxtail, Setaria faberii); experiment: Test A postemergence, visual injury rating 0-100; type: in vivo; settings: 0 to 100 scale
[9] = tested on: ryegrass, Italian (Italian ryegrass, Lolium multiflorum); experiment: Test A postemergence, visual injury rating 0-100; type: in vivo; settings: 0 to 100 scale
[10] = tested on: barnyardgrass (Echinochloa crus-galli); experiment: Test A postemergence, visual injury rating 0-100; type: in vivo; settings: 0 to 100 scale
[11] = tested on: pigweed (Amaranthus retroflexus); experiment: Test A postemergence, visual injury rating 0-100; type: in vivo; settings: 0 to 100 scale
[12] = tested on: galium (catchweed bedstraw, Galium aparine); experiment: Test A postemergence, visual injury rating 0-100; type: in vivo; settings: 0 to 100 scale
kochia (Kochia scoparia) [13] = experiment: Test A postemergence, visual injury rating 0-100; type: in vivo; settings: 0 to 100 scale
corn (Zea mays) = experiment: Test A postemergence, visual injury rating 0-100; type: in vivo; settings: 0 to 100 scale
[14] = tested on: wheat (Triticum aestivum); experiment: Test A postemergence, visual injury rating 0-100; type: in vivo; settings: 0 to 100 scale
rice (Oryza sativa) = experiment: Test B flooded paddy test, visual rating 0-100 (0 no effect, 100 complete control); settings: Flood, 250 g ai/ha, applied to paddy water, rated after 13 to 15 days
[15] = tested on: ducksalad (Heteranthera limosa); experiment: Test B flooded paddy test, visual rating 0-100; settings: Flood, 250 g ai/ha, applied to paddy water, rated after 13 to 15 days
[16] = tested on: barnyardgrass (Echinochloa crus-galli); experiment: Test B flooded paddy test, visual rating 0-100; settings: Flood, 250 g ai/ha, applied to paddy water, rated after 13 to 15 days
[17] = tested on: barnyardgrass (Echinochloa crus-galli); experiment: Test A preemergence, visual injury rating 0-100 (0 no effect, 100 complete control); type: in vivo; settings: for Barnyardgrass plant response rating: 31 g ai/ha, 0 to 100 scale (0 no effect, 100 complete control), approx. 10 days

SMILES	Ragweed plant response rating (0 to 100 scale) ([1]; 125 g ai/ha)	Foxtail, Giant plant response rating (0 to 100 scale) ([2]; 125 g ai/ha)	Ryegrass, Italian plant response rating (0 to 100 scale) ([3]; 125 g ai/ha)	Pigweed plant response rating (0 to 100 scale) ([4]; 125 g ai/ha)	Kochia plant response rating (0 to 100 scale) (kochia (Kochia scoparia) [5]; 125 g ai/ha)	Blackgrass plant response rating ([6]; 125 g ai/ha)	Ragweed plant response rating ([7]; 125 g ai/ha)	Foxtail, Giant plant response rating ([8]; 125 g ai/ha)	Ryegrass, Italian plant response rating ([9]; 125 g ai/ha)	Barnyardgrass plant response rating ([10]; 125 g ai/ha)	Pigweed plant response rating ([11]; 125 g ai/ha)	Galium plant response rating ([12]; 125 g ai/ha)	Kochia plant response rating (kochia (Kochia scoparia) [13]; 125 g ai/ha)	Corn plant response rating (corn (Zea mays); 125 g ai/ha)	Wheat plant response rating ([14]; 125 g ai/ha)	Rice plant response rating (0 to 100 scale) (rice (Oryza sativa))	Ducksalad plant response rating (0 to 100 scale) [15]	Barnyardgrass plant response rating (0 to 100 scale) [16]	Barnyardgrass plant response rating (0 to 100 scale) ([17]; 125 g ai/ha)	Ragweed plant response rating [1]	other results
CC1=[N+]([O-])[C@H](C(=O)Nc2cccc(F)c2F)[C@@H](c2ccc(C(F)(F)F)c(F)c2)C1 (relative stereo) [Compound 61, rel-(2S,3R)—N-(2,3-Difluorophenyl)-3-[3-fluoro-4-(trifluoromethyl)phenyl]-3,4-dihydro-5-methyl-2H-pyrrole-2-carboxamide 1-oxide]	50	90	80	80	30	50	0	70	80	70	30	50	0	50	70	0	74	65	90	–	Ragweed plant response rating (0 to 100 scale) ([1]; 500 g ai/ha): 80; Foxtail, Giant plant response rating (0 to 100 scale) ([2]; 500 g ai/ha): 90; Ryegrass, Italian plant response rating (0 to 100 scale) ([3]; 500 g ai/ha): 90; Pigweed plant response rating (0 to 100 scale) ([4]; 500 g ai/ha): 90; Kochia plant response rating (0 to 100 scale) (kochia (Kochia scoparia) [5]; 500 g ai/ha): 80; Blackgrass plant response rating ([6]; 500 g ai/ha): 90; Ragweed plant response rating ([7]; 500 g ai/ha): 50; Foxtail, Giant plant response rating ([8]; 500 g ai/ha): 90; Ryegrass, Italian plant response rating ([9]; 500 g ai/ha): 80; Barnyardgrass plant response rating ([10]; 500 g ai/ha): 90; Pigweed plant response rating ([11]; 500 g ai/ha): 50; Galium plant response rating ([12]; 500 g ai/ha): 60; Kochia plant response rating (kochia (Kochia scoparia) [13]; 500 g ai/ha): 30; Corn plant response rating (corn (Zea mays); 500 g ai/ha): 90; Wheat plant response rating ([14]; 500 g ai/ha): 90; Barnyardgrass plant response rating (0 to 100 scale) ([17]; 500 g ai/ha): 90
CC1=[N+]([O-])[C@H](C(=O)Nc2cccc(F)c2F)[C@@H](c2ccc(C(F)F)cc2)C1 (relative stereo) [Compound 93, rel-(2S,3R)-3-(4-Difluoromethyl)phenyl)-N-(2,3-difluorophenyl) 3,4-dihydro-5-methyl-2H-pyrrole-2-carboxamide 1-oxide]	70	90	70	80	30	60	0	80	60	70	50	60	0	60	60	15	100	70	90	–	Ragweed plant response rating (0 to 100 scale) ([1]; 500 g ai/ha): 90; Foxtail, Giant plant response rating (0 to 100 scale) ([2]; 500 g ai/ha): 90; Ryegrass, Italian plant response rating (0 to 100 scale) ([3]; 500 g ai/ha): 90; Pigweed plant response rating (0 to 100 scale) ([4]; 500 g ai/ha): 90; Kochia plant response rating (0 to 100 scale) (kochia (Kochia scoparia) [5]; 500 g ai/ha): 80; Blackgrass plant response rating ([6]; 500 g ai/ha): 70; Ragweed plant response rating ([7]; 500 g ai/ha): 70; Foxtail, Giant plant response rating ([8]; 500 g ai/ha): 90; Ryegrass, Italian plant response rating ([9]; 500 g ai/ha): 70; Barnyardgrass plant response rating ([10]; 500 g ai/ha): 90; Pigweed plant response rating ([11]; 500 g ai/ha): 80; Galium plant response rating ([12]; 500 g ai/ha): 70; Kochia plant response rating (kochia (Kochia scoparia) [13]; 500 g ai/ha): 80; Corn plant response rating (corn (Zea mays); 500 g ai/ha): 90; Wheat plant response rating ([14]; 500 g ai/ha): 80; Barnyardgrass plant response rating (0 to 100 scale) ([17]; 500 g ai/ha): 90
CC1=[N+]([O-])[C@H](C(=O)Nc2cccc(F)c2F)[C@@H](c2ccc(F)c(OC(F)(F)C(F)F)c2)C1 [Compound 54, (2S,3R)—N-(2,3-Difluorophenyl)-3-[4-fluoro-3-(1,1,2,2-tetrafluoroethyoxy)phenyl]-3,4-dihydro-5-methyl-2H-pyrrole-2-carboxamide 1-oxide]	50	90	80	70	50	70	30	70	70	70	60	70	50	70	50	0	80	35	90	0	Foxtail, Giant plant response rating [2]: 90; Ryegrass, Italian plant response rating [3]: 60; Pigweed plant response rating [4]: 0; Kochia plant response rating (kochia (Kochia scoparia) [5]): 0; Blackgrass plant response rating ([6]; 31 g ai/ha): 60; Ragweed plant response rating ([7]; 31 g ai/ha): 0; Foxtail, Giant plant response rating ([8]; 31 g ai/ha): 30; Ryegrass, Italian plant response rating ([9]; 31 g ai/ha): 0; Barnyardgrass plant response rating ([10]; 31 g ai/ha): 30; Pigweed plant response rating ([11]; 31 g ai/ha): 20; Galium plant response rating ([12]; 31 g ai/ha): 40; Kochia plant response rating (kochia (Kochia scoparia) [13]; 31 g ai/ha): 0; Corn plant response rating (corn (Zea mays); 31 g ai/ha): 40; Wheat plant response rating ([14]; 31 g ai/ha): 0; Barnyardgrass plant response rating [17]: 80
CC1=[N+]([O-])[C@@H](C(=O)Nc2cccc(F)c2F)[C@H](c2cccc(OC(C)C)c2)C1 [Compound 55]	0	90	80	0	0	80	0	80	70	60	0	30	0	0	30	0	100	70	90	0	Foxtail, Giant plant response rating [2]: 70; Ryegrass, Italian plant response rating [3]: 0; Pigweed plant response rating [4]: 0; Kochia plant response rating (kochia (Kochia scoparia) [5]): 0; Blackgrass plant response rating ([6]; 31 g ai/ha): 0; Ragweed plant response rating ([7]; 31 g ai/ha): 0; Foxtail, Giant plant response rating ([8]; 31 g ai/ha): 10; Ryegrass, Italian plant response rating ([9]; 31 g ai/ha): 50; Barnyardgrass plant response rating ([10]; 31 g ai/ha): 20; Pigweed plant response rating ([11]; 31 g ai/ha): 0; Galium plant response rating ([12]; 31 g ai/ha): 0; Kochia plant response rating (kochia (Kochia scoparia) [13]; 31 g ai/ha): 0; Corn plant response rating (corn (Zea mays); 31 g ai/ha): 0; Wheat plant response rating ([14]; 31 g ai/ha): 0; Barnyardgrass plant response rating [17]: 90
CC1=[N+]([O-])[C@@H](C(=O)Nc2cccc(F)c2F)[C@H](c2cccc(OC(C)(C)C)c2)C1 [Compound 69]	0	100	80	0	0	70	20	90	70	70	20	40	0	0	0	0	95	90	90	0	Foxtail, Giant plant response rating [2]: 90; Ryegrass, Italian plant response rating [3]: 20; Pigweed plant response rating [4]: 0; Kochia plant response rating (kochia (Kochia scoparia) [5]): 0; Blackgrass plant response rating ([6]; 31 g ai/ha): 10; Ragweed plant response rating ([7]; 31 g ai/ha): 0; Foxtail, Giant plant response rating ([8]; 31 g ai/ha): 20; Ryegrass, Italian plant response rating ([9]; 31 g ai/ha): 30; Barnyardgrass plant response rating ([10]; 31 g ai/ha): 30; Pigweed plant response rating ([11]; 31 g ai/ha): 0; Galium plant response rating ([12]; 31 g ai/ha): 20; Kochia plant response rating (kochia (Kochia scoparia) [13]; 31 g ai/ha): 0; Corn plant response rating (corn (Zea mays); 31 g ai/ha): 0; Wheat plant response rating ([14]; 31 g ai/ha): 0; Barnyardgrass plant response rating [17]: 90

From US11498899B2, “Nitrone herbicides” (FMC Corporation, priority 2016, dated 2022)
